In patent US12662707B2, “MYC amplification drives resistance to pan-RAS inhibitors in pancreatic cancer” (The Trustees of Columbia University in the City of New York, priority 2024, dated 2026):

Experiments:
[1] = system: RAS/MAPK pathway (pERK, pAKT, pS6, c-PARP) in human PDAC cell lines; test: Western blot of RAS pathway signaling, human PDAC cell lines; format: cell-based
Protocol: Cells were seeded at 7.5×10^5-4×10^6 cells per well in 6-well plates or 100 mm dishes in growth medium. After overnight incubation, indicated compound (RMC-7977, IAG933 or DMSO (0.1% v/v)) were added and incubated for the indicated time points. Cells were washed twice with ice-cold PBS and lysed with NP-40 lysis buffer (Thermo Fisher Scientific, J60766), MSD Tris Lysis Buffer (MSD, R60TX-2), RIPA buffer (50 mM TRIS-HCl, pH 7.5, 150 mM NaCl, 1% NP-40, 0.5% sodium deoxycholate, 0.1% SDS) or a lysis buffer containing 1% Triton X-100, 20 mM Tris-HCl, 150 mM NaCl, and 1 mM EDTA. All lysis buffers were supplemented with protease and phosphatase inhibitors. Lysates were scraped and collected before centrifugation at 21,000×g for 10 minutes at 4° C. The protein-containing supernatants were quantified by BCA assay (Pierce, 23225) and equal quantities of protein were denatured with LDS and reducing agent at 95° C. Samples were resolved on 12% or 4-12% Bis-Tris polyacrylamide gels, then transferred to a nitrocellulose or PVDF membrane using the iBlot 2.0 system or wet transfer. Membranes were blocked in Intercept TBS buffer (LiCor, 927-60001) or 3-5% milk before probing with primary antibodies overnight at 4° C. Secondary antibodies were added as appropriate, and the membranes were imaged on a LiCor Odyssey imager. Alternatively, membranes were incubated with HRP-linked secondary antibodies and developed with Clarity or ClarityMax chemiluminescent substrates using a ChemiDoc XRS+ or ChemiDoc™ MP imager (Bio-Rad).

[2] = RMC-7977 levels in KPCY allograft tumor tissue; format: in vivo; conditions: C57Bl/6, mouse, oral, 10 mg/kg
Protocol: (§1) Body weights were measured twice a week during the study. Tissue was harvested either at 4 hours or 24 hours after last dose and preserved as previously described (See Xenograft studies section). Whole blood, tumor, colon and skin tissue concentrations of RMC-7977 were determined using liquid chromatography-tandem mass spectrometry (LC-MS/MS) methods. […] After thorough mixing and centrifugation, the supernatant was directly analyzed on a Sciex 6500+ triple quadrupole mass spectrometer equipped with an ACQUITY or Shimadzu UPLC system. An ACQUITY UPLC BEH C18 or C4 […] (2.1×50 mm) column was used with gradient elution for compound separation. RMC-7977 and IS (verapamil or terfenadine) were detected by positive electrospray ionization using multiple reaction monitoring (RMC-7977: m/z 865.4/706.4 or m/z 865.3/833.5; verapamil: m/z 455.2/164.9; terfenadine: m/z 472.3/436.4). […] BA analysis on blood and tissue samples from xenograft models was run at Wuxi AppTec. BA analysis on blood and tissue samples from allograft models and GEMM was run at Revolution Medicines.

[3] = Pharmacokinetics in Capan-1 xenograft model (tumor and blood); format: in vivo; conditions: BALB/c (immune-deficient), mouse, tumor vs whole blood, oral; Capan-1 xenograft tumors; read-out: overall exposure (AUC0-48) in tumors compared to blood
Protocol: as §1, with “Studies were terminated early if tumor burden reached humane endpoint. Body” for “Body”, “collected” for “measured”, “Means±s.e.m were plotted in the waterfall plots. For the single-dose pharmacokinetic/pharmacodynamic (PK/PD) study, mice were randomized and assigned into groups (n=3-6/dose/timepoint). […] Sakura, 4583) solution or snap-frozen in LN2 for further analysis. Whole blood” for “Tissue”, “transferred into K2EDTA Microtainer tubes (BD, 365974), incubated for 5 minutes” for “harvested either at 4 hours or 24 hours after last dose”, “snap-frozen in LN2.” for “preserved as previously described (See Xenograft studies section).”

CC3+ apoptotic cells = test: CC3 IHC in Capan-1 xenograft model (tumor, colon, skin); format: in vivo, mouse
Protocol: Studies were terminated early if tumor burden reached humane endpoint. Body weights were collected twice a week during the study. Means±s.e.m were plotted in the waterfall plots. For the single-dose pharmacokinetic/pharmacodynamic (PK/PD) study, mice were randomized and assigned into groups (n=3-6/dose/timepoint). […] Sakura, 4583) solution or snap-frozen in LN2 for further analysis. Whole blood was transferred into K2EDTA Microtainer tubes (BD, 365974), incubated for 5 minutes and snap-frozen in LN2. To stain tissues collected from the Capan-1 xenograft model, a similar protocol was used with the following changes. Sections were stained using a Leica BOND automated staining system and primary antibodies were detected with the Leica BOND Polymer detection kit (3-P—PV6119). Stained slides were scanned and digitized with a 3DHistotech Pannoramic whole slide scanner at 20× magnification. Image analysis was performed using HALO software from Indica Labs.

wild type RAS = conditions: reference 14; cited from earlier work

CCn1c(-c2cc(N3CCN(C4CC4)CC3)cnc2[C@H](C)OC)c2c3cc(ccc31)-c1csc(n1)C[C@H](NC(=O)[C@H]1[C@@H]3COC[C@@H]31)C(=O)N1CCC[C@H](N1)C(=O)OCC(C)(C)C2 [RMC-7977]
phosphorylation of ERK1/2 (pERK) ([1]; human PDAC cell lines, 1-100 nM): reduced phosphorylation
inhibition of PI3K effector signaling (pAKT, pS6S235/S236) ([1]; human cell lines): more variable inhibition
duration of inhibition of pERK ([1]; human cell lines, 100 nM): 48 hours
apoptotic marker cleaved PARP (c-PARP) ([1]; human cell lines, later timepoints): induction
half-life [2]: 3.5 h
Kp [3]: ~3
time of peak of CC3+ apoptotic cells post-dose (CC3+ apoptotic cells; Capan-1 CDX tumors): 8 h
CC3+ apoptotic cells in tumors relative to vehicle (CC3+ apoptotic cells; Capan-1 CDX tumors, single dose): notable increase
apoptotic cells in colon or skin (CC3+ apoptotic cells; tumor-bearing animals, any timepoint): few apoptotic cells
affinity for wild type RAS compared to mutant variants (wild type RAS): somewhat reduced affinity
